This note sets out measurements from ChEMBL document CHEMBL1201862, “PubChem BioAssay data set” (2004).

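Briefly, cells in 96-well plates were exposed to five compound concentrations for 48 h, and endpoints were estimated by linear interpolation. Here, GI50 denotes the concentration required for 50% inhibition of growth.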 Calls of active or inactive are those of the source. Cut-off read from the data, not from the text of the source: active = GI50 up to about 1.1 µM and inactive = higher.

What all share (test): inhibition of tumour cell growth, NCI panel, 48 h
Test [1] has as its system DMS-273.
Test [2] concerns XF498.
Test [3] deals with LXFL 529.
Test [4] concerns DLD-1.
Test [5] relates to RXF 631.
The subject of test [6] is KM-20L2.
Test [7] deals with DMS-114.
The subject of test [8] is SNB-78.
Test [9] has as its system HOP-18.

Regarding `O=C1c2ccccc2C(=O)c2c1ccc(O)c2O` [ATHRAQUINONES A], the GI50 is 35.9 µM (inactive) in [1], 39.1 µM (inactive) in test [2], 43.2 µM (inactive) in [3] and 43.4 µM (inactive) in [4].

For `COC1C(OC(=O)/C=C/C=C/C=C/C=C\C(=O)O)CCC2(CO2)C1C1(C)OC1CC=C(C)C` (configuration not stated), the GI50 in [1], in test [2], in test [3], in test [5], in test [4] and in test [6] was > 100 µM (inactive) throughout. Further, the GI50 in test [7] is > 100 µM (inactive).

As to `CC(C)COC(=O)c1ccc(/N=C\c2ccc(/C=N/c3ccc(C(=O)OCC(C)C)cc3)cc2)cc1`, the GI50 in [1], in test [8], in test [2], in test [3], in [5] and in [4] was > 100 µM (inactive) in each case. Moreover, in [6], the GI50 is > 100 µM (inactive).

For `Nc1nc(Cl)cc(NCCCCCCCCCCNc2cc(Cl)nc(N)n2)n1`, the GI50 in [1] is 4.35 µM (inactive); in test [8], 0.0638 µM (active); in [9] it was 58.3 µM (inactive); in test [2] it was 1.25 µM (inactive); in test [3], 1.27 µM (inactive); in [5] it was 5.3 µM (inactive). In addition, the values for the GI50 in [4] and in [6] were 6.5 µM (inactive) and 5.21 µM (inactive), respectively.

In the case of `CNc1nc(N)cc(O)n1`, the GI50 in test [1], in test [8], in test [3], in [4], in test [6] and in [7] was > 100 µM (inactive) each time.

`O=C(N[C@@H]1C=CCC[C@@H]1c1ccccc1)OCc1ccccc1`: the GI50 is 16.4 µM (inactive) in [1]; 32.5 µM (inactive) in test [8]; 19.2 µM (inactive) in test [9]; 19 µM (inactive) in test [2]; 18.8 µM (inactive) in [3]; 23.7 µM (inactive) in test [4]. For the same compound, the GI50 in [6] is 20 µM (inactive); in test [7] it was 21.7 µM (inactive).

For the compound `O=C1C=Cc2noc3cccc1c23`, the GI50 in test [1] is 6.61 µM (inactive); in test [8], 2.86 µM (inactive); in test [9], 18.7 µM (inactive); in test [3], 1.94 µM (inactive); in test [5] it was 13.8 µM (inactive); in [4] it was 1.66 µM (inactive). Also, the GI50 was 15.5 µM (inactive) in test [6] and 2.07 µM (inactive) in [7].

Regarding `CC(C)Cc1ccc(C(C)/C=C2\CCC(CN(C)C)C2=O)cc1` (configuration not stated), the GI50 was 17.5 µM (inactive) in [8]; 17.6 µM (inactive) in test [9]; 20 µM (inactive) in test [2]; 9.35 µM (inactive) in test [3]; 10.7 µM (inactive) in test [4]; 24.3 µM (inactive) in test [6]. For the same compound, the GI50 in test [7] is 19.2 µM (inactive).

Regarding `COc1c(Br)cc(Br)c(OC)c1-c1[nH]c(Br)c(Br)c1Br`, the GI50 in test [1] is 6.9 µM (inactive); in [8] it was 11.1 µM (inactive); in test [9], 2.54 µM (inactive); in test [2], 2.27 µM (inactive); in test [5], 6.64 µM (inactive); in [4], 5.26 µM (inactive). The GI50 in test [6] is 8.87 µM (inactive); in test [7], 4.8 µM (inactive).

Take `O=C1C2c3[nH]c4ccccc4c3C3CCCC3C2C(=O)N1c1ccccc1` (configuration not stated): the GI50 in test [1] is > 100 µM (inactive); in [8], > 100 µM (inactive); in [2] it was 12 µM (inactive); in [3], > 100 µM (inactive); in [4], > 100 µM (inactive); in test [7] it was > 100 µM (inactive).

As to `CCOC(=O)C(=O)C=P(c1ccccc1)(c1ccccc1)c1ccccc1`, the GI50 in [1], in [8], in test [9], in test [3], in test [5] and in [4] was > 100 µM (inactive) throughout. The GI50 in test [6] and in [7] was > 100 µM (inactive) in each case.

`COC[n+]1cc2cc(OC)c(OC)cc2c2ccc3cc(OC)c(OC)cc3c21`: the GI50 in test [8], in test [9], in [3], in test [5], in test [4] and in test [6] was > 100 µM (inactive) throughout. The GI50 in [7] was > 100 µM (inactive).

Consider `CN(C)CC(/C(Cc1ccccc1)=N\NC(=O)c1ccncc1)c1ccccc1` (configuration not stated), for which the GI50 was 29.4 µM (inactive) in [2]; 36.1 µM (inactive) in test [3]; 40.7 µM (inactive) in test [5]; 49.1 µM (inactive) in [4]; 27 µM (inactive) in [6]; 22.5 µM (inactive) in [7].

Regarding `Cc1c(C(=O)/C=C/c2cccc3ccccc23)[n+]([O-])c2ccccc2[n+]1[O-]`, the GI50 is 11.7 µM (inactive) in test [1]; 6.84 µM (inactive) in test [8]; 14.4 µM (inactive) in test [9]; 8.02 µM (inactive) in test [3]; 18.1 µM (inactive) in test [5]; 10.6 µM (inactive) in [4]. Moreover, the figures for the GI50 in test [6] and in test [7] were 14.6 µM (inactive) and 4.85 µM (inactive), respectively.

In the case of `CCOc1ccc(-c2oc(/C=N/NS(=O)(=O)c3ccc(C)cc3)c([N+](=O)[O-])c2-c2ccc(OCC)cc2)cc1`, the GI50 is 8.41 µM (inactive) in test [1]; 9.73 µM (inactive) in test [8]; 9.93 µM (inactive) in test [3]; 4.98 µM (inactive) in [4]; 11.2 µM (inactive) in [6]; 3.21 µM (inactive) in [7].

Turning to `C/C(=N\NS(=O)(=O)c1ccc(C)cc1)c1ccc[n+]([O-])n1`, the GI50 is > 100 µM (inactive) in test [1]; > 100 µM (inactive) in [9]; > 100 µM (inactive) in [2]; 45.2 µM (inactive) in [3]; 50.1 µM (inactive) in test [4]; > 100 µM (inactive) in test [6]. The GI50 in test [7] is > 100 µM (inactive).

Regarding `C1CN2N3CCCC23C1` (configuration not stated), the GI50 in [1], in test [8], in test [9], in test [2], in [3] and in test [4] was > 100 µM (inactive) in each case. Further, the GI50 in [6] and in [7] was > 100 µM (inactive) each time.

`COC(=O)C(C)Oc1ccc(O)cc1` (configuration not stated): the GI50 in [1], in [8], in [9], in [3], in [5] and in [4] was > 100 µM (inactive) throughout. Moreover, the GI50 in [6] is > 100 µM (inactive); in test [7] it was 19.6 µM (inactive).

Regarding `O=C(CCc1ccccc1)On1nnc2ccccc2c1=O`, the GI50 in test [1], in test [8], in test [3], in [4], in test [6] and in [7] was > 100 µM (inactive) in each case.

Turning to `C[C@@]1(Cc2ccccc2)C(=O)N2[C@@H](CO)C(c3ccccc3)O[C@]2(C)c2ccccc21` (some centres not stated), the GI50 in [1], in test [8], in [3], in test [4], in [6] and in [7] was > 100 µM (inactive) throughout.

Take `C#CCN(Cc1ccc2nc(-c3ccccc3)c(Cl)nc2c1)c1cc(OC)c(OC)c(OC)c1`: the GI50 in test [1] was 99.5 µM (inactive); in test [8] it was > 100 µM (inactive); in [9], > 100 µM (inactive); in test [3], > 100 µM (inactive); in test [5], > 100 µM (inactive); in test [4], > 100 µM (inactive). For the same compound, the GI50 in test [6] was > 100 µM (inactive); in test [7], 14.3 µM (inactive).

As for `COc1cc(/C=C(\NC(=O)c2ccccc2)c2nc3cncnc3[nH]2)cc(OC)c1OC`, the GI50 in [1], in [8], in test [2], in [3], in [5] and in [4] was > 100 µM (inactive) throughout. The GI50 in test [6] is > 100 µM (inactive).

With `CC(C)=Cc1cc(C(=O)Nc2ccc(Cl)c(Cl)c2)nc(N)n1`, the GI50 in test [1] was > 100 µM (inactive); in [8], > 100 µM (inactive); in test [9], 78.3 µM (inactive); in [2] it was > 100 µM (inactive); in test [3], > 100 µM (inactive); in test [5], > 100 µM (inactive). Moreover, the GI50 in test [4], in [6] and in test [7] was > 100 µM (inactive) in each case.

Consider `C[C@H](CCC1SC1(C)C)C1CCC2(C)C3=C(CC[C@]12C)[C@@]1(C)CC[C@H](O)C(C)(C)C1CC3` (some centres not stated), for which the GI50 in [1], in test [9], in test [2], in test [3], in test [4] and in test [6] was > 100 µM (inactive) throughout. In test [7], the GI50 was > 100 µM (inactive).

Regarding `Cc1ccc2nc(NC(=O)C(=O)C(C#N)c3ccc(Cl)cc3)sc2c1` (configuration not stated), the GI50 was > 50 µM (inactive) in test [1]; > 50 µM (inactive) in [8]; 0.265 µM (active) in [9]; > 50 µM (inactive) in test [2]; > 50 µM (inactive) in test [3]; > 50 µM (inactive) in [6]. The GI50 in test [7] is > 50 µM (inactive).

For the compound `COc1ccc(OC)c(N2CC(N)C2=O)c1` (configuration not stated), the GI50 in [1], in test [9], in test [2], in [5] and in test [6] was > 100 µM (inactive) each time.
